In ChEMBL document CHEMBL4507284, “Data for DCP probe BI-1230” (2021):

Legend:
[1] = tested on: Receptor-type tyrosine-protein kinase FLT3 (Homo sapiens), P36888 [K663Q]; details: Compound concentration 1000.0 nM
[2] = biological target: Mitogen-activated protein kinase kinase kinase 15 (Homo sapiens) (UniProt Q6ZN16); details: Compound concentration 1000.0 nM
[3] = biological target: Ribosomal protein S6 kinase alpha-2 (Homo sapiens) (UniProt Q15349); details: Compound concentration 1000.0 nM
[4] = biological target: RAC-beta serine/threonine-protein kinase (Homo sapiens) (UniProt P31751); details: Compound concentration 1000.0 nM
[5] = biological target: SRSF protein kinase 3 (Homo sapiens) (UniProt Q9UPE1); details: Compound concentration 1000.0 nM
[6] = biological target: STE20-like serine/threonine-protein kinase (Homo sapiens) (UniProt Q9H2G2); details: Compound concentration 1000.0 nM
[7] = biological target: Cyclin-dependent kinase 8 (Homo sapiens) (UniProt P49336); details: Compound concentration 1000.0 nM
[8] = biological target: Serine/threonine-protein kinase PknB (Mycobacterium tuberculosis) (UniProt P9WI81); details: Compound concentration 1000.0 nM
[9] = tested on: Proto-oncogene tyrosine-protein kinase receptor Ret (Homo sapiens), P07949 [M918T]; details: Compound concentration 1000.0 nM
[10] = biological target: Calcium/calmodulin-dependent protein kinase type II subunit delta (Homo sapiens) (UniProt Q13557); details: Compound concentration 1000.0 nM
[11] = biological target: AP2-associated protein kinase 1 (Homo sapiens) (UniProt Q2M2I8); details: Compound concentration 1000.0 nM
[12] = biological target: Dual specificity protein kinase CLK3 (Homo sapiens) (UniProt P49761); details: Compound concentration 1000.0 nM
[13] = biological target: Serine/threonine-protein kinase 36 (Homo sapiens) (UniProt Q9NRP7); details: Compound concentration 1000.0 nM
[14] = biological target: Ribosomal protein S6 kinase alpha-1 (Homo sapiens) (UniProt Q15418); details: Compound concentration 1000.0 nM
[15] = biological target: Serine/threonine-protein kinase WNK3 (Homo sapiens) (UniProt Q9BYP7); details: Compound concentration 1000.0 nM
[16] = biological target: Serine/threonine-protein kinase PLK2 (Homo sapiens) (UniProt Q9NYY3); details: Compound concentration 1000.0 nM
[17] = biological target: Homeodomain-interacting protein kinase 4 (Homo sapiens) (UniProt Q8NE63); details: Compound concentration 1000.0 nM
[18] = biological target: ALK tyrosine kinase receptor (Homo sapiens) (UniProt Q9UM73); details: Compound concentration 1000.0 nM
[19] = biological target: Macrophage colony-stimulating factor 1 receptor (Homo sapiens) (UniProt P07333); details: Compound concentration 1000.0 nM
[20] = biological target: Interleukin-1 receptor-associated kinase 4 (Homo sapiens) (UniProt Q9NWZ3); details: Compound concentration 1000.0 nM
[21] = biological target: Myotonin-protein kinase (Homo sapiens) (UniProt Q09013); details: Compound concentration 1000.0 nM
[22] = biological target: Mitotic checkpoint serine/threonine-protein kinase BUB1 (Homo sapiens) (UniProt O43683); details: Compound concentration 1000.0 nM
[23] = biological target: Mitogen-activated protein kinase 10 (Homo sapiens) (UniProt P53779); details: Compound concentration 1000.0 nM
[24] = biological target: Serine/threonine-protein kinase Nek7 (Homo sapiens) (UniProt Q8TDX7); details: Compound concentration 1000.0 nM
[25] = biological target: Aurora kinase B (Homo sapiens) (UniProt Q96GD4); details: Compound concentration 1000.0 nM
[26] = biological target: Mitogen-activated protein kinase kinase kinase 12 (Homo sapiens) (UniProt Q12852); details: Compound concentration 1000.0 nM
[27] = biological target: Mitogen-activated protein kinase kinase kinase 11 (Homo sapiens) (UniProt Q16584); details: Compound concentration 1000.0 nM
[28] = biological target: Cyclin-dependent kinase 7 (Homo sapiens) (UniProt P50613); details: Compound concentration 1000.0 nM
[29] = biological target: Muscarinic acetylcholine receptor M2 (Homo sapiens) (UniProt P08172); details: Compound concentration 10.0 uM
[30] = biological target: Serine/threonine-protein kinase MRCK gamma (Homo sapiens) (UniProt Q6DT37); details: Compound concentration 1000.0 nM
[31] = biological target: Cyclin-dependent kinase 2 homolog (Plasmodium falciparum (isolate 3D7)) (UniProt P61075); details: Compound concentration 1000.0 nM
[32] = biological target: Dual specificity testis-specific protein kinase 1 (Homo sapiens) (UniProt Q15569); details: Compound concentration 1000.0 nM
[33] = tested on: Receptor-type tyrosine-protein kinase FLT3 (Homo sapiens), P36888 [UNDEFINED MUTATION]; details: Compound concentration 1000.0 nM
[34] = biological target: Ephrin type-A receptor 4 (Homo sapiens) (UniProt P54764); details: Compound concentration 1000.0 nM
[35] = biological target: Cyclin-dependent kinase 2 (Homo sapiens) (UniProt P24941); details: Compound concentration 1000.0 nM
[36] = biological target: Protein kinase C theta type (Homo sapiens) (UniProt Q04759); details: Compound concentration 1000.0 nM
[37] = biological target: Histamine H1 receptor (Homo sapiens) (UniProt P35367); details: Compound concentration 10.0 uM
[38] = biological target: Dual specificity mitogen-activated protein kinase kinase 4 (Homo sapiens) (UniProt P45985); details: Compound concentration 1000.0 nM
[39] = biological target: Serine/threonine-protein kinase B-raf (Homo sapiens) (UniProt P15056); details: Compound concentration 1000.0 nM
[40] = biological target: Tyrosine-protein kinase CSK (Homo sapiens) (UniProt P41240); details: Compound concentration 1000.0 nM
[41] = biological target: Tyrosine-protein kinase Yes (Homo sapiens) (UniProt P07947); details: Compound concentration 1000.0 nM
[42] = biological target: Ribosomal protein S6 kinase alpha-1 (Homo sapiens) (UniProt Q15418); details: Compound concentration 1000.0 nM; remark: listed apart in the source
[43] = tested on: Hepatocyte growth factor receptor (Homo sapiens), P08581 [M1250T]; details: Compound concentration 1000.0 nM
[44] = biological target: Serine/threonine-protein kinase DCLK2 (Homo sapiens) (UniProt Q8N568); details: Compound concentration 1000.0 nM
[45] = biological target: Serine/threonine-protein kinase Nek1 (Homo sapiens) (UniProt Q96PY6); details: Compound concentration 1000.0 nM

Ribosomal protein S6 kinase alpha-1 (Homo sapiens), sequence (Q15418 whole entry): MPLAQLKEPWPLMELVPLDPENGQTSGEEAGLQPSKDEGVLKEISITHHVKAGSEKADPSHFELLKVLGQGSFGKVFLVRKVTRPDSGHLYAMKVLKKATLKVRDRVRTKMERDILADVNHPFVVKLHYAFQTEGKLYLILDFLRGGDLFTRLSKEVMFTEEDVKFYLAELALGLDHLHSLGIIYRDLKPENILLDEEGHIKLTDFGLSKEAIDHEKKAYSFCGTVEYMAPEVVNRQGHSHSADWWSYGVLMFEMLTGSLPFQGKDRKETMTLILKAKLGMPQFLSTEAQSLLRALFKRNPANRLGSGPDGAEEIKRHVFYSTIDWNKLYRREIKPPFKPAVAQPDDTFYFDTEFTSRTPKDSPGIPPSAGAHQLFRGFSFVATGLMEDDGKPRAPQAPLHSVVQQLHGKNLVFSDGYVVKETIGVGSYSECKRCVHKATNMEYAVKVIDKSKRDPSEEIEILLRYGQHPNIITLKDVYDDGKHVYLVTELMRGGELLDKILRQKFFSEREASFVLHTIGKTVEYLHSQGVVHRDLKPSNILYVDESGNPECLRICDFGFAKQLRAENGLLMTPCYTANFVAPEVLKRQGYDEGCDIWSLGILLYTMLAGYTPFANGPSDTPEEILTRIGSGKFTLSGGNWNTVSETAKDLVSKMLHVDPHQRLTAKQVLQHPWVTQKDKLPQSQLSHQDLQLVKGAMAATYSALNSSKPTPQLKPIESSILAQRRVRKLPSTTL
Homeodomain-interacting protein kinase 4 (Homo sapiens), sequence (Q8NE63 whole entry): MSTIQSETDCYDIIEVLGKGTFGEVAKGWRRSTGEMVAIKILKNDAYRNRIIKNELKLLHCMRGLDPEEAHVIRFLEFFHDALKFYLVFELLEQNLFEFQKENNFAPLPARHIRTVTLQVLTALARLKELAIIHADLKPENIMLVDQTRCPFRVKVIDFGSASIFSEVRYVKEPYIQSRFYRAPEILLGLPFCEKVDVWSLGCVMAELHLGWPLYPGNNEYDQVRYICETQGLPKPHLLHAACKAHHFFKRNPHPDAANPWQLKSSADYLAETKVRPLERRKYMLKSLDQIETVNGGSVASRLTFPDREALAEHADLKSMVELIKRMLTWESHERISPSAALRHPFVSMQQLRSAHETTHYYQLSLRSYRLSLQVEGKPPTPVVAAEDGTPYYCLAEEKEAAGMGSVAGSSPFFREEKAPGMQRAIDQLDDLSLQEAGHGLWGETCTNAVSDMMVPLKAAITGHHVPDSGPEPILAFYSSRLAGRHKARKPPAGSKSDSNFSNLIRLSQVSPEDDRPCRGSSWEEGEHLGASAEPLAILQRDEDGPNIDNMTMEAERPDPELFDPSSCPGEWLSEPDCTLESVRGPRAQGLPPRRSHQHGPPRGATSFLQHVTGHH
Dual specificity testis-specific protein kinase 1 (Homo sapiens), sequence (Q15569 whole entry, looked up): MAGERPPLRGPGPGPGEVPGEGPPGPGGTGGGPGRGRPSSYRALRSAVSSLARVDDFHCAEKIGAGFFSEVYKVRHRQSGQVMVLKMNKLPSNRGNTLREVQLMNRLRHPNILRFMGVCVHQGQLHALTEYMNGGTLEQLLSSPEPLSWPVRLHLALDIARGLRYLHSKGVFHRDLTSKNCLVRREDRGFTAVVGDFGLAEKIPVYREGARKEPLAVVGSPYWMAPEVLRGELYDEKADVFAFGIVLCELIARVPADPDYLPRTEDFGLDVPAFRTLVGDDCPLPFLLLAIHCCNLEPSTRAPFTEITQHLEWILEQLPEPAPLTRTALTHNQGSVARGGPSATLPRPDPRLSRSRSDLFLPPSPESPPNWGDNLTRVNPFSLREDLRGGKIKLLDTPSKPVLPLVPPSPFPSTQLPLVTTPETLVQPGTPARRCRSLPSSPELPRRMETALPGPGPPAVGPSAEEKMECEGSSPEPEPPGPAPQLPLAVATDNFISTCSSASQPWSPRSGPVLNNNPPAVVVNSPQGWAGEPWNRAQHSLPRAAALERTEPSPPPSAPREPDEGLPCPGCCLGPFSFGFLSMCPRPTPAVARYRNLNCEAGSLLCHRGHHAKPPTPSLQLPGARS
Serine/threonine-protein kinase PknB (Mycobacterium tuberculosis), sequence (P9WI81 whole entry): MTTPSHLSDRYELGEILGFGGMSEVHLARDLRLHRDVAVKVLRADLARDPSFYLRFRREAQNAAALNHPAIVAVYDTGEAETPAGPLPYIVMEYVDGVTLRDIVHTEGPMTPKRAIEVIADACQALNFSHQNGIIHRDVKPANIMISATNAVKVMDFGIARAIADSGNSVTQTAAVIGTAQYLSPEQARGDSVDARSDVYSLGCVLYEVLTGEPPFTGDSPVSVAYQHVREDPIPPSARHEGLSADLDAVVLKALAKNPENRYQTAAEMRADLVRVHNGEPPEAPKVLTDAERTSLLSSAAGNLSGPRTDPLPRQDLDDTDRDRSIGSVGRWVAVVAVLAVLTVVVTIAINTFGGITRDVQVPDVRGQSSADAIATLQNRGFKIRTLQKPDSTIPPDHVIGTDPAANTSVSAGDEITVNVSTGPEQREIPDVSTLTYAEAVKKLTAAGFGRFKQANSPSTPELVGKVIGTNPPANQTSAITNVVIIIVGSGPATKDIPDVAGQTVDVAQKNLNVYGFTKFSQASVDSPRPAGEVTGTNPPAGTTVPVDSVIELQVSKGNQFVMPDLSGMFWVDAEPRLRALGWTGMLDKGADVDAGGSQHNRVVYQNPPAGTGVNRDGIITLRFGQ
RAC-beta serine/threonine-protein kinase (Homo sapiens), sequence (P31751 whole entry): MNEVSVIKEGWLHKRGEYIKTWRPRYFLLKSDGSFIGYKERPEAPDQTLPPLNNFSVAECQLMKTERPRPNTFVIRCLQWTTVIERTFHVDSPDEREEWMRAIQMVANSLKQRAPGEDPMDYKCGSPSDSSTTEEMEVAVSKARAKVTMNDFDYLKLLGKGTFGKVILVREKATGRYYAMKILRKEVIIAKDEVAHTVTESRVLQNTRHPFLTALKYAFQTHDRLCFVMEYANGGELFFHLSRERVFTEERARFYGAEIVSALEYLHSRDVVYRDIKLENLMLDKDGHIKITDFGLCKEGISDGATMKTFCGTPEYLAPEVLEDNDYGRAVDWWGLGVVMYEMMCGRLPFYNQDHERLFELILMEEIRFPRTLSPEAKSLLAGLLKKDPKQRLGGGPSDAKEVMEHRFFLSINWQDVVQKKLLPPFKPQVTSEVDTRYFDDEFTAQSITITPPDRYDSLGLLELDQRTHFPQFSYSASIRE
Cyclin-dependent kinase 8 (Homo sapiens), sequence (P49336 whole entry): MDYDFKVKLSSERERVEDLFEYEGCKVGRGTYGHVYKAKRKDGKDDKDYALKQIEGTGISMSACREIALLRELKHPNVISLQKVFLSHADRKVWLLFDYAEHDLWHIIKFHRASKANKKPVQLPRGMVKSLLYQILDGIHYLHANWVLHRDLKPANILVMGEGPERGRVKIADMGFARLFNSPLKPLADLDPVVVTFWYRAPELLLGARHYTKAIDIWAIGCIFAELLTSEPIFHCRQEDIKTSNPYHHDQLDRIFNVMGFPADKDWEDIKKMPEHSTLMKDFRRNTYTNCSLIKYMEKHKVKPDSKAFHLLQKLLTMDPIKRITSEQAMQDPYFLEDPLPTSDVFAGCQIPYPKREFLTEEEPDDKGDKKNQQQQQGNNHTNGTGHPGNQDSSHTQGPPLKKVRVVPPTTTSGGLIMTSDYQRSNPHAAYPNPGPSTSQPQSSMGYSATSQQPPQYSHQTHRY
Serine/threonine-protein kinase 36 (Homo sapiens), sequence (Q9NRP7 whole entry): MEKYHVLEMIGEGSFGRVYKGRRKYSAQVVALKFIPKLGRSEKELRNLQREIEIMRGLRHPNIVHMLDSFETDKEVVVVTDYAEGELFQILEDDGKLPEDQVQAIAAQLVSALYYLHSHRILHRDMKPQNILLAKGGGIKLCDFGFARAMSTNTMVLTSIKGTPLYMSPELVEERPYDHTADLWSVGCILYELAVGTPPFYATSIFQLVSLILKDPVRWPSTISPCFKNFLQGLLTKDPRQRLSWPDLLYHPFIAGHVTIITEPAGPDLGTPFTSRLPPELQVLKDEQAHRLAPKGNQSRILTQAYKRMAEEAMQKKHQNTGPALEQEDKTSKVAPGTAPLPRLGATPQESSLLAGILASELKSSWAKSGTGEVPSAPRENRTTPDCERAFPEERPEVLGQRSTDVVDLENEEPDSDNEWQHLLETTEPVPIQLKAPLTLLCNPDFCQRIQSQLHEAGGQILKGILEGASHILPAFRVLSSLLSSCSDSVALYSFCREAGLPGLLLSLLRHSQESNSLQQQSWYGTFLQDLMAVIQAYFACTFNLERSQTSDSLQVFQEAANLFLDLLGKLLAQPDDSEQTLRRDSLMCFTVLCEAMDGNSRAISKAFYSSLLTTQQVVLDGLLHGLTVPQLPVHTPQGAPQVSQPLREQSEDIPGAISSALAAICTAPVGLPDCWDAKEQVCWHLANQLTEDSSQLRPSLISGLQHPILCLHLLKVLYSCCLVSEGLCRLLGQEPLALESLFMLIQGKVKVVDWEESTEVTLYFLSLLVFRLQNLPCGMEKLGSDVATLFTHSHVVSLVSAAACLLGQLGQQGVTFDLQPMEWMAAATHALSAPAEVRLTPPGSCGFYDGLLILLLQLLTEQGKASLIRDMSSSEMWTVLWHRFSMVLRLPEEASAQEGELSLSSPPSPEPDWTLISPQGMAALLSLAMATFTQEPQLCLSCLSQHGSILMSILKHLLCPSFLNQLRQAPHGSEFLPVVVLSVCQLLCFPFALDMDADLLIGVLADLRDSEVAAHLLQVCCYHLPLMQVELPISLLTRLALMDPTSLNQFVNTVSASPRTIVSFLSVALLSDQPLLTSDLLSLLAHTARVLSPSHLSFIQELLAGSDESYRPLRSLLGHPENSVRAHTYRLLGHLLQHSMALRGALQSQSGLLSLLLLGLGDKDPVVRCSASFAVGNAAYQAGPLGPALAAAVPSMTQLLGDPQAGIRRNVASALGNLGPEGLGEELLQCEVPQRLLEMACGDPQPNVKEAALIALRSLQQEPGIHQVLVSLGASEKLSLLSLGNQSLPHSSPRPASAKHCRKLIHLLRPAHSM

COc1ccc2c(O[C@@H]3C[C@H]4C(=O)N[C@]5(C(=O)O)CC5/C=C\CCCCC[C@H](NC(=O)OC5CCCC5)C(=O)N4C3)cc(-c3csc(NC(=O)C(C)C)n3)nc2c1C (stereo not given in full) [BI 1230]
inactive: residual activity [1] 81% | residual activity [2] 70% | residual activity [3] 100% | residual activity [4] 89% | residual activity [5] 57% | residual activity [6] 100% | residual activity [7] 68% | residual activity [8] 94% | residual activity [9] 97% | residual activity [10] 100% | residual activity [11] 100% | residual activity [12] 100% | residual activity [13] 93% | residual activity [14] 74% | residual activity [15] 100% | residual activity [16] 69% | residual activity [17] 99% | residual activity [18] 74% | residual activity [19] 71% | residual activity [20] 71% | residual activity [21] 83% | residual activity [22] 96% | residual activity [23] 71% | residual activity [24] 100% | residual activity [25] 91% | residual activity [26] 92% | residual activity [27] 100% | residual activity [28] 62% | inhibition [29] 3.22% | residual activity [30] 100% | residual activity [31] 83% | residual activity [32] 91% | residual activity [33] 80% | residual activity [34] 100% | residual activity [35] 99% | residual activity [36] 100% | inhibition [37] 31.5% | residual activity [38] 100% | residual activity [39] 86% | residual activity [40] 100% | residual activity [41] 100% | residual activity [42] 100% | residual activity [43] 100% | residual activity [44] 95% | residual activity [45] 100%

O=C(N[C@H]1CCCCC/C=C\C2C[C@@]2(C(=O)O)NC(=O)[C@@H]2C[C@@H](Oc3ccncc3)CN2C1=O)OC1CCCC1 (stereo not given in full) [BI 1675]
inactive: residual activity [1] 85% | residual activity [2] 68% | residual activity [3] 99% | residual activity [4] 85% | residual activity [5] 89% | residual activity [6] 100% | residual activity [7] 66% | residual activity [8] 93% | residual activity [9] 96% | residual activity [10] 87% | residual activity [11] 77% | residual activity [12] 93% | residual activity [13] 85% | residual activity [14] 100% | residual activity [15] 100% | residual activity [16] 93% | residual activity [17] 100% | residual activity [18] 100% | residual activity [19] 95% | residual activity [20] 88% | residual activity [21] 89% | residual activity [22] 100% | residual activity [23] 81% | residual activity [24] 100% | residual activity [25] 89% | residual activity [26] 100% | residual activity [27] 97% | residual activity [28] 71% | inhibition [29] -1.71% | residual activity [30] 90% | residual activity [31] 78% | residual activity [32] 97% | residual activity [33] 88% | residual activity [34] 93% | residual activity [35] 87% | residual activity [36] 100% | inhibition [37] 23.9% | residual activity [38] 73% | residual activity [39] 100% | residual activity [40] 96% | residual activity [41] 100% | residual activity [42] 82% | residual activity [43] 92% | residual activity [44] 93% | residual activity [45] 100%
